{"source": "patent US20250230140A1", "about": "(Viva Star Biosciences (Suzhou) Co., Ltd., priority 2021, published 2025)", "data": [{"molecular_target": "T1, LPA1 (Homo sapiens, UniProt Q92633)", "T1 construct": "ProLink (β-galactosidase enzyme-donor fragment); host or cells: CHO-K1 (PathHunter EDG2 β-Arrestin cell line)", "T1 sequence (Q92633 whole entry, the tested form may be a part)": "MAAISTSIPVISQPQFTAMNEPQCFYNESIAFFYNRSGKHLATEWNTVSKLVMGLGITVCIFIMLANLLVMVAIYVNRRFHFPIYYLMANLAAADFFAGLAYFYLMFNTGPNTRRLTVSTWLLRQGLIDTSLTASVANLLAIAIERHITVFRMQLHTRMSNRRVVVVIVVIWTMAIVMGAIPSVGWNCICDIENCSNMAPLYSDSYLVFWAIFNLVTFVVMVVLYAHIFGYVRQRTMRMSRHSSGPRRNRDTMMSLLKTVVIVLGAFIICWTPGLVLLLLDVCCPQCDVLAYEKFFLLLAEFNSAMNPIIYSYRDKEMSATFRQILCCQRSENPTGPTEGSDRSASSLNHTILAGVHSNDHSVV", "assay": "LPA1 calcium flux assay (LPA1 functional antagonist assay)", "assay_type": "cell-based", "conditions": "PathHunter CHO-K1 EDG2 β-Arrestin cells, calcium indicator dye, stimulated with EC80 concentration of LPA, FLIPR", "procedure": "The effectiveness of compounds of the present invention as LPA1 inhibitors can be determined in an LPA1 functional antagonist assay as follows.\nPathHunter® CHO-K1 EDG2 β-Arrestin Cell Line (Eurofins DiscoverX Corporation, Cat #93-0644C2) were plated overnight (11,500 cells/well) in poly-D-lysine coated 384-well microplates (Corning, Cat #356697) in AssayComplete™ Cell Plating 35 Reagent (Eurofins DiscoverX Corporation, Cat #93-0563R35). Following overnight culture, cells were loaded with calcium indicator dye from the HitHunter Calcium No WashPLUS Assay kit (Eurofins DiscoverX Corporation, Cat #93-0091) for 45 minutes at 37° C. Test compounds solubilized in DMSO (Sigma, Cat #276855) on 384-well polypropylene microplates (Greiner bio-one, Cat #781280) were then diluted to intermediate concentration with assay buffer [1×HBSS calcium/magnesium (Corning, Cat #21-023-CM) and 20 mM HEPES (Corning, Cat #25-060-Cl)] before addition to cells by Agilent Velocity 11 with a final concentration of 0.4% DMSO. After compound addition, assay plates were equilibrated to room temperature for 30 minutes. Cells were then stimulated by addition of EC80 concentration of LPA (Cat #, 10010093) in assay buffer containing [1×HBSS calcium/magnesium (Corning, Cat #21-023-CM), 20 mM HEPES (Corning, Cat #25-060-Cl), and 0.1% BSA (Sigma, Cat #A8806)] using Molecular Devices FLIPR Tetra PLUS®. IC50 values were determined by Chemical and Biological Information System from ChemInnovation Software, Inc.\nThe compounds of this invention were tested for their activity to inhibit LPA1 as determined in an LPA1 functional antagonist assay as described herein.", "units": {"IC50": "nM"}, "values": [{"smiles": "CCc1nc(-c2nnn(C)c2COc2cc(-n3cccn3)ncn2)ccc1C1CCOC(CC(=O)O)C1", "note": "(stereo not drawn) [Example 33, 2-(4-(6-(5-(((6-(1H-pyrazol-1-yl)pyrimidin-4-yl)oxy)methyl)-1-methyl-1H-1,2,3-triazol-4-yl)-2-ethylpyridin-3-yl)tetrahydro-2H-pyran-2-yl)acetic acid]", "IC50": "100 to 500"}, {"smiles": "CCCc1ccc(=O)n(Cc2c(-c3ccc(C4CCCC(CC(=O)O)C4)c(C)n3)nnn2C)c1", "note": "(stereo not drawn) [Example 38, 2-[3-(2-methyl-6-{1-methyl-5-[(2-oxo-5-propyl-1,2-dihydropyridin-1-yl)methyl]-1H-1,2,3-triazol-4-yl}pyridin-3-yl)cyclohexyl]acetic acid]", "IC50": "100 to 500"}, {"smiles": "Cc1nc(-c2nnn(C)c2COc2nccc(C3CCC3)n2)ccc1C1CCCC(CC(=O)O)C1", "note": "(stereo not drawn) [Example 39, 2-{3-[6-(5-{[(4-cyclobutylpyrimidin-2-yl)oxy]methyl}-1-methyl-1H-1,2,3-triazol-4-yl)-2-methylpyridin-3-yl]cyclohexyl}acetic acid]", "IC50": "< 100"}, {"smiles": "Cc1nc(-c2nnn(C)c2CN2CC(CC3CC3)N(C)C2=O)ccc1O[C@H]1CCC[C@H](C(=O)O)C1", "note": "(stereo partly drawn) [Example 42, (1S,3S)-3-((6-(5-((4-(cyclopropylmethyl)-3-methyl-2-oxoimidazolidin-1-yl)methyl)-1-methyl-1H-1,2,3-triazol-4-yl)-2-methylpyridin-3-yl)oxy)cyclohexane-1-carboxylic acid]", "IC50": "100 to 500"}, {"smiles": "CCCc1ccc(=O)n(Cc2c(-c3ccc(O[C@H]4CCC[C@H](C(=O)O)C4)c(CC)n3)nnn2C)c1", "note": "[Example 43, (1S,3S)-3-((2-ethyl-6-(1-methyl-5-((2-oxo-5-propylpyridin-1(2H)-yl)methyl)-1H-1,2,3-triazol-4-yl)pyridin-3-yl)oxy)cyclohexanecarboxylic acid]", "IC50": "< 100"}, {"smiles": "CCc1nc(-c2nnn(C)c2Cn2cc(CC3CC3)ccc2=O)ccc1O[C@H]1CCC[C@H](C(=O)O)C1", "note": "[Example 44, (1S,3S)-3-((6-(5-((5-(cyclopropylmethyl)-2-oxopyridin-1(2H)-yl)methyl)-1-methyl-1H-1,2,3-triazol-4-yl)-2-ethylpyridin-3-yl)oxy)cyclohexanecarboxylic acid]", "IC50": "< 100"}]}]}
